Measurements reported in PubChem BioAssay AID2060624 (Molecular Pharmacology Branch, DTP, NCI, 2025).
pIC50: −log10 of the molar value.

Test system: 217524-143-R1-J4-PDC spheroids with HUVEC/MSC, viability
Assay: Anticancer human tumor 217524-143-R1-J4-PDC patient-derived pancreatic carcinoma cell line growth inhibition [CLK]
Conditions: for pIC50: curve of first compound; for viability, T/C: stronger effect = lower value
Method in brief: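 Multi-cell-type spheroids combined patient-derived tumor cells with HUVEC endothelial cells and human mesenchymal stem cells. Paired agents were dosed in half-log steps down from about clinical Cmax, or from 10 microM where Cmax was unknown.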

[1] = second compound 0.0316 µM, first compound 0.0316 µM
[2] = second compound 0.0316 µM, first compound 0.1 µM
[3] = second compound 0.0316 µM, first compound 0.316 µM
[4] = second compound 0.0316 µM, first compound 1 µM
[5] = second compound 0.0316 µM, first compound 3.16 µM
[6] = second compound 0.0316 µM, first compound 10 µM
[7] = second compound 0.1 µM, first compound 0.0316 µM
[8] = second compound 0.1 µM, first compound 0.1 µM
[9] = second compound 0.1 µM, first compound 0.316 µM
[10] = second compound 0.1 µM, first compound 1 µM
[11] = second compound 0.1 µM, first compound 3.16 µM
[12] = second compound 0.1 µM, first compound 10 µM
[13] = second compound 0.316 µM, first compound 0.0316 µM
[14] = second compound 0.316 µM, first compound 0.1 µM
[15] = second compound 0.316 µM, first compound 0.316 µM
[16] = second compound 0.316 µM, first compound 1 µM
[17] = second compound 0.316 µM, first compound 3.16 µM
[18] = second compound 0.316 µM, first compound 10 µM
[19] = second compound 1 µM, first compound 0.0316 µM
[20] = second compound 1 µM, first compound 0.1 µM
[21] = second compound 1 µM, first compound 0.316 µM
[22] = second compound 1 µM, first compound 1 µM
[23] = second compound 1 µM, first compound 3.16 µM
[24] = second compound 1 µM, first compound 10 µM
[25] = second compound 3.16 µM, first compound 0.0316 µM
[26] = second compound 3.16 µM, first compound 0.1 µM
[27] = second compound 3.16 µM, first compound 0.316 µM
[28] = second compound 3.16 µM, first compound 1 µM
[29] = second compound 3.16 µM, first compound 3.16 µM
[30] = second compound 3.16 µM, first compound 10 µM
[31] = second compound 10 µM, first compound 0.0316 µM
[32] = second compound 10 µM, first compound 0.1 µM
[33] = second compound 10 µM, first compound 0.316 µM
[34] = second compound 10 µM, first compound 1 µM
[35] = second compound 10 µM, first compound 3.16 µM
[36] = second compound 10 µM, first compound 10 µM
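Further: spheroids exposed to agents for seven days before reading.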
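Wherever viability, T/C is given: 100% = DMSO vehicle control viability.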

C=CC(=O)N1CCN(c2nc(=O)n(-c3c(C)ccnc3C(C)C)c3nc(-c4c(O)cccc4F)c(F)cc23)C(C)C1 (stereo unspecified) + CNC(=O)c1ccc(Nc2nc(OC3CCCC3)c3c(-c4ccc5nc(C)oc5c4)c[nH]c3n2)c(OC)c1
pIC50 (second compound 0.0316 µM): < 5.00
pIC50 (second compound 0.1 µM): > 7.50
pIC50 (second compound 0.316 µM): > 7.50
pIC50 (second compound 1 µM): > 7.50
pIC50 (second compound 3.16 µM): > 7.50
pIC50 (second compound 10 µM): > 7.50
viability, T/C [1]: 99.7%
viability, T/C [2]: 96.5%
viability, T/C [3]: 82.2%
viability, T/C [4]: 102%
viability, T/C [5]: 123%
viability, T/C [6]: 118%
viability, T/C [7]: 44.1%
viability, T/C [8]: 47.4%
viability, T/C [9]: 41.4%
viability, T/C [10]: 49.9%
viability, T/C [11]: 58.5%
viability, T/C [12]: 55.8%
viability, T/C [13]: 34.6%
viability, T/C [14]: 31.3%
viability, T/C [15]: 50.8%
viability, T/C [16]: 41.4%
viability, T/C [17]: 49%
viability, T/C [18]: 43.4%
viability, T/C [19]: 24.7%
viability, T/C [20]: 27.6%
viability, T/C [21]: 32.8%
viability, T/C [22]: 39.2%
viability, T/C [23]: 36.4%
viability, T/C [24]: 30%
viability, T/C [25]: 24.9%
viability, T/C [26]: 29.8%
viability, T/C [27]: 31%
viability, T/C [28]: 30.2%
viability, T/C [29]: 36.8%
viability, T/C [30]: 27.9%
viability, T/C [31]: 27.9%
viability, T/C [32]: 27.9%
viability, T/C [33]: 31.7%
viability, T/C [34]: 31.9%
viability, T/C [35]: 34.2%
viability, T/C [36]: 29.1%

CCCS(=O)(=O)Nc1ccc(F)c(C(=O)c2c[nH]c3ncc(-c4ccc(Cl)cc4)cc23)c1F + CNC(=O)c1ccc(Nc2nc(OC3CCCC3)c3c(-c4ccc5nc(C)oc5c4)c[nH]c3n2)c(OC)c1
pIC50 (second compound 0.0316 µM): < 5.00
pIC50 (second compound 0.1 µM): > 7.50
pIC50 (second compound 0.316 µM): > 7.50
pIC50 (second compound 1 µM): > 7.50
pIC50 (second compound 3.16 µM): > 7.50
pIC50 (second compound 10 µM): > 7.50
viability, T/C [1]: 76.2%
viability, T/C [2]: 83%
viability, T/C [3]: 99.1%
viability, T/C [4]: 130%
viability, T/C [5]: 139%
viability, T/C [6]: 57.1%
viability, T/C [7]: 40.1%
viability, T/C [8]: 49.2%
viability, T/C [9]: 49.9%
viability, T/C [10]: 67.3%
viability, T/C [11]: 76.6%
viability, T/C [12]: 40.1%
viability, T/C [13]: 41.5%
viability, T/C [14]: 38.8%
viability, T/C [15]: 45.6%
viability, T/C [16]: 58.1%
viability, T/C [17]: 59.2%
viability, T/C [18]: 31.2%
viability, T/C [19]: 35.1%
viability, T/C [20]: 35.1%
viability, T/C [21]: 46.9%
viability, T/C [22]: 45%
viability, T/C [23]: 49.3%
viability, T/C [24]: 24.1%
viability, T/C [25]: 32.1%
viability, T/C [26]: 31.6%
viability, T/C [27]: 34.6%
viability, T/C [28]: 47.6%
viability, T/C [29]: 42.1%
viability, T/C [30]: 17.6%
viability, T/C [31]: 29.6%
viability, T/C [32]: 26.5%
viability, T/C [33]: 38.7%
viability, T/C [34]: 34.9%
viability, T/C [35]: 42%
viability, T/C [36]: 18%

COC1C=CCC(C)C(C)S(=O)(=O)NC(=O)c2ccc3c(c2)N(CC2CCC21)CC1(CCCc2cc(Cl)ccc21)CO3 (stereo unspecified) + CNC(=O)c1ccc(Nc2nc(OC3CCCC3)c3c(-c4ccc5nc(C)oc5c4)c[nH]c3n2)c(OC)c1
pIC50 (second compound 0.0316 µM): 5.11
pIC50 (second compound 0.1 µM): > 7.50
pIC50 (second compound 0.316 µM): > 7.50
pIC50 (second compound 1 µM): > 7.50
pIC50 (second compound 3.16 µM): > 7.50
pIC50 (second compound 10 µM): > 7.50
viability, T/C [1]: 83.2%
viability, T/C [2]: 91.3%
viability, T/C [3]: 95.8%
viability, T/C [4]: 114%
viability, T/C [5]: 108%
viability, T/C [6]: 35.6%
viability, T/C [7]: 46.6%
viability, T/C [8]: 43.9%
viability, T/C [9]: 72.9%
viability, T/C [10]: 75.3%
viability, T/C [11]: 91.2%
viability, T/C [12]: 33.1%
viability, T/C [13]: 34.2%
viability, T/C [14]: 38.8%
viability, T/C [15]: 39.4%
viability, T/C [16]: 29.6%
viability, T/C [17]: 31.9%
viability, T/C [18]: 33.7%
viability, T/C [19]: 30.1%
viability, T/C [20]: 29.3%
viability, T/C [21]: 27.4%
viability, T/C [22]: 22.1%
viability, T/C [23]: 20.9%
viability, T/C [24]: 24.2%
viability, T/C [25]: 26.9%
viability, T/C [26]: 25.1%
viability, T/C [27]: 22.3%
viability, T/C [28]: 20.6%
viability, T/C [29]: 23.5%
viability, T/C [30]: 23.9%
viability, T/C [31]: 29.8%
viability, T/C [32]: 21%
viability, T/C [33]: 17.9%
viability, T/C [34]: 18.5%
viability, T/C [35]: 17.5%
viability, T/C [36]: 22.3%
